Assay results taken from US20070054916A1, “Aryl nitrogen-containing bicyclic compounds and methods of use” (Amgen Inc., priority 2004, published 2007).

The molecules below were run on production of TNF by monocytes activated with bacterial lipopolysaccharide (LPS) (assay: Lipopolysaccharide-activated monocyte TNF production assay). Settings: Homo sapiens, read-out: IC50 values in the monocyte assay (LPS induced TNF release).
Format: cell-based
Method: Lipopolysaccharide-Activated Monocyte TNF Production Assay
Test compounds were evaluated in vitro for the ability to inhibit the production of TNF by monocytes activated with bacterial lipopolysaccharide (LPS). Fresh residual source leukocytes (a byproduct of plateletpheresis) were obtained from a local blood bank, and peripheral blood mononuclear cells (PBMCs) were isolated by density gradient centrifugation on Ficol-Paque Plus (Pharmacia). PBMCs were suspended at 2×10^6/ml in DMEM supplemented to contain 2% FCS, 10 mM, 0.3 mg/ml […], 100 U/ml penicillin G and […] streptomycin sulfate (complete media). Cells were plated into Falcon flat bottom, 96 well culture plates (200 μl/well) and cultured overnight at 37° C. and 6% CO2. Non-adherent cells were removed by washing with 200 μl/well of fresh medium. Wells containing adherent cells (˜70% monocytes) were replenished with 100 μl of fresh medium.
Preparation of Test Compound Stock Solutions
Test compounds were dissolved in […]. Compound stock solutions were prepared to an initial concentration of […]. Stocks were diluted initially to 20-200 μM in complete media. Nine two-fold serial dilutions of each compound were then prepared in complete medium.
Treatment of Cells with Test Compounds and Activation of TNF Production with Lipopolysaccharide
One hundred microliters of each test compound dilution were added to microtiter wells containing adherent monocytes and 100 μl complete medium. Monocytes were cultured with test compounds for 60 min at which time 25 μl of complete medium containing 30 ng/ml lipopolysaccharide from E. coli K532 were added to each well. Cells were cultured an additional 4 hrs. Culture supernatants were then removed and TNF presence in the supernatants was quantified using an ELISA.
Flat bottom, 96 well Corning High Binding ELISA plates were coated overnight (4° C.) with 150 μL/well of 3 μg/ml murine anti-human TNF-α MAb (R&D Systems #MAB210). Wells were then blocked for 1 hr at room temperature with 200 μL/well of CaCl2-free ELISA buffer supplemented to contain 20 mg/ml BSA (standard ELISA buffer: […], 150 mM NaCl, 2 mM CaCl2, 0.15 mM thimerosal, pH 7.4). Plates were washed and replenished with 100 μl of test supernatants (diluted 1:3) or standards. Standards consisted of eleven 1.5-fold serial dilutions from a stock of 1 ng/ml recombinant human TNF (R&D Systems). Plates were incubated at room temperature for 1 hr on orbital shaker (300 rpm), washed and replenished with 100 μl/well of 0.5 ug/ml goat anti-human TNF-α (R&D systems #AB-210-NA) biotinylated at a 4:1 ratio. Plates were incubated for 40 min, washed and replenished with 100 μl/well of alkaline phosphatase-conjugated streptavidin (Jackson ImmunoResearch #016-050-084) at 0.02 ug/ml. Plates were incubated 30 min, washed and replenished with 200 μl/well of 1 mg/ml of p-nitrophenyl phosphate. After 30 min, plates were read at 405 nm on a Vmax plate reader.
Standard curve data were fit to a second order polynomial and unknown TNF-α concentrations determined from their OD by solving this equation for concentration. TNF concentrations were then plotted vs. test compound concentration using a second order polynomial. This equation was then used to calculate the concentration of test compounds causing a 50% reduction in TNF production.

Q: For COc1ccc(NC(=O)c2ccc(C)c(-c3ccc4nc(N)ncc4c3)c2)cc1C(F)(F)F [Example 119, 3-(2-amino-6-quinazolinyl)-4-methyl-N-(4-(methyloxy)-3-(trifluoromethyl)phenyl)benzamide], which IC50 is on record?
A: ≤ 25 µM

Q: Cc1ccc(C(=O)Nc2ccc(F)c(C(F)(F)F)c2)cc1-c1ccc2nc(N)ncc2c1 [Example 124, 3-(2-amino-6-quinazolinyl)-N-(4-fluoro-3-(trifluoromethyl)phenyl)-4-methylbenzamide] was tested. Which IC50 did it give?
A: ≤ 25 µM

Q: With CNc1ncc2cc(-c3cc(NC(=O)c4cc(C(F)(F)F)cc(C(F)(F)F)c4)ccc3C)cnc2n1 [Example 200, N-(4-methyl-3-(2-(methylamino)pyrido[2,3-d]pyrimidin-6-yl)phenyl)-3,5-bis(trifluoromethyl)benzamide] as the molecule, how does the IC50 read?
A: ≤ 25 µM

Q: With CN(C)CCCN(C)c1ccc(C(F)(F)F)cc1NC(=O)c1cc(-c2ccc3nc(N)ncc3c2)ccc1F [Example 84, 5-(2-amino-6-quinazolinyl)-N-(2-((3-(dimethylamino)propyl)(methyl)amino)-5-(trifluoromethyl)phenyl)-2-fluorobenzamide] as the molecule, how does the IC50 read?
A: ≤ 25 µM

Q: For Cc1ccc(C(=O)Nc2cccc(C(F)(F)F)c2F)cc1-c1ccc2nc(Nc3ccc(OCCCN4CCCCC4)cc3)ncc2c1 [Example 31, N-(2-fluoro-3-(trifluoromethyl)phenyl)-4-methyl-3-(2-((4-((3-(1-piperidinyl)propyl)oxy)phenyl)amino)-6-quinazotinyl) benzamide], which IC50 is on record?
A: ≤ 25 µM

Q: With CNc1ncc2cc(-c3cc(C(=O)Nc4cc(C(C)(C)C)ccc4OC)ccc3C)cnc2n1 [Example 186] as the molecule, how does the IC50 read?
A: ≤ 25 µM

Q: With Cc1ccc(C(=O)Nc2cc(C(F)(F)F)ccc2N2CCOCC2)cc1-c1ccc2nc(N)ncc2c1 [Example 79, 3-(2-amino-6-quinazolinyl)-4-methyl-N-(2-(4-morpholinyl)-5-(trifluoromethyl)phenyl)benzamide] as the molecule, how does the IC50 read?
A: ≤ 25 µM

Q: For Cc1ccc(C(=O)NCc2ccncc2)cc1-c1ccc2nc(N)ncc2c1 [Example 425, 3-(2-amino-6-quinazolinyl)-4-methyl-N-(4-pyridinylmethyl) benzamide], which IC50 is on record?
A: ≤ 25 µM

Q: For COc1ccc(Cl)cc1NC(=O)Nc1ccc(-c2ccc3nc(N)ncc3c2)c(C)c1 [Example 520, N-(4-(2-amino-6-quinazolinyl)-3-methylphenyl)-N′-(5-chloro-2-(methyloxy)phenyl)urea], which IC50 is on record?
A: ≤ 25 µM

Q: Which IC50 does the source give for Cc1c(NC(=O)c2cccc(C(F)(F)F)c2)cccc1-c1ccc2nc(N)ncc2c1 [Example 197, N-(3-(2-amino-6-quinazolinyl)-2-methylphenyl)-3-(trifluoromethyl)benzamide] here?
A: ≤ 25 µM

Q: With Cc1ccc(C(=O)NCCc2cccnc2)cc1-c1ccc2nc(N)ncc2c1 [Example 427, 3-(2-amino-6-quinazolinyl)-4-methyl-N-(2-(3-pyridinyl)ethyl)b enzamide] as the molecule, how does the IC50 read?
A: ≤ 25 µM

Q: How did the IC50 turn out when Cc1ccc(C(=O)Nc2cc(C(F)(F)F)ccc2N(C)C)cc1-c1ccc2nc(N)ncc2c1 [Example 81, 3-(2-amino-6-quinazolinyl)-N-(2-(dimethylamino)-5-(trifluoromethyl)phenyl)-4-methylbenzamide] was run?
A: ≤ 25 µM

Q: Which IC50 does the source give for CSc1ccc(C(F)(F)F)cc1NC(=O)c1ccc(C)c(-c2ccc3nc(N)ncc3c2)c1 [Example 146, 3-(2-amino-6-quinazolinyl)-4-methyl-N-(2-(methylsulfanyl)-5-(trifluoromethyl)phenyl)benzamide] here?
A: ≤ 25 µM

Q: For Cc1ccc(C(=O)Nc2ncc(Cl)cc2Cl)cc1-c1ccc2nc(N)ncc2c1 [Example 346, 3-(2-amino-6-quinazolinyl)-N-(3,5-dichloro-2-pyridinyl)-4-methylbenzamide], which IC50 is on record?
A: ≤ 25 µM

Q: Which IC50 does the source give for Cc1ccc(C(=O)Nc2cccc(Cl)c2Cl)cc1-c1ccc2nc(N)ncc2c1 [Example 232, 3-(2-amino-6-quinazolinyl)-N-(2,3-dichlorophenyl)-4-methylbenzamide] here?
A: ≤ 25 µM

Q: Cc1ccc(C(=O)Nc2cc(C(F)(F)F)ccc2OCCN2CCCC2)cc1-c1ccc2nc(N)ncc2c1 [Example 420, 3-(2-amino-6-quinazolinyl)-4-methyl-N-(2-((2-(1-pyrrolidinyl)ethyl)oxy)-5-(trifluoromethyl)phenyl)benzamide] was tested. Which IC50 did it give?
A: ≤ 25 µM

Q: With Nc1ncc2cc(-c3cc(NC(=O)c4cccc(Cl)c4Cl)ccc3Cl)ccc2n1 [Example 482, N-(3-(2-amino-6-quinazolinyl)-4-chlorophenyl)-2,3-dichlorobenzamide] as the molecule, how does the IC50 read?
A: ≤ 25 µM

Q: With Cc1ccc(C(=O)N[C@@H](C)c2nccs2)cc1-c1ccc2nc(N)ncc2c1 [Example 121, 3-(2-amino-6-quinazolinyl)-4-methyl-N-((1S)-1-(1,3-thiazol-2-yl)ethyl)benzamide] as the molecule, how does the IC50 read?
A: ≤ 25 µM

Q: For Cc1ccc(C(=O)Nc2cc(C(F)(F)F)ccc2N2CCS(=O)(=O)CC2)cc1-c1ccc2nc(N)ncc2c1 [Example 228, 3-(2-amino-6-quinazolinyl)-N-(2-(1,1-dioxido-4-thiomorpholinyl)-5-(trifluoromethyl)phenyl)-4-methylbenzamide], which IC50 is on record?
A: ≤ 25 µM

Q: For Cc1ccc(C(=O)Nc2ncccc2OCCCN2CCCCC2)cc1-c1ccc2nc(N)ncc2c1 [Example 362, 3-(2-amino-6-quinazolinyl)-4-(methyl-N-(3-((3-1-piperidinyl)propyl)oxy)-2-pyridinyl)benzamide], which IC50 is on record?
A: ≤ 25 µM

Q: With Cc1ccc(C(=O)Nc2cc(C(C)(C)C)ccc2NC(=O)CN2CCOCC2)cc1-c1ccc2nc(N)ncc2c1 [Example 8] as the molecule, how does the IC50 read?
A: ≤ 25 µM

Q: Cc1ccc(C(=O)Nc2cc(C(F)(F)F)ccc2OCCCN(C)C)cc1-c1ccc2nc(N)ncc2c1 [Example 144, 3-(2-amino-6-quinazolinyl)-N-(2-((3-(dimethylamino)propyl)oxy)-5-(trifluoromethyl)phenyl)-4-methylbenzamide] was tested. Which IC50 did it give?
A: ≤ 25 µM

Q: For CCN(CC)CCNC(=O)Nc1ccc(NC(=O)c2ccc(C)c(-c3ccc4nc(N)ncc4c3)c2)cc1C(F)(F)F [Example 5, 3-(2-amino-6-quinazolinyl)-N-(4-((((2-(diethylamino)ethyl)amino)carbonyl)amino)-3-(trifluoromethyl)phenyl)-4-methylbenzamide], which IC50 is on record?
A: ≤ 25 µM

Q: Which IC50 does the source give for Cc1ccc(C(=O)Nc2ccc(C#N)c(C(F)(F)F)c2)cc1-c1ccc2nc(N)ncc2c1 [Example 125, 3-(2-amino-6-quinazolinyl)-N-(4-cyano-3-(trifluoromethyl)phenyl)-4-methylbenzamide] here?
A: ≤ 25 µM

Q: How did the IC50 turn out when CCN(CC)CCOc1cccnc1NC(=O)c1ccc(C)c(-c2ccc3nc(N)ncc3c2)c1 [Example 363, 3-(2-amino-6-quinazolinyl)-N-(3-((2-(diethylamino)ethyl)oxy)-2-pyridinyl)-4-methylbenzamide] was run?
A: ≤ 25 µM

Q: Which IC50 does the source give for CNc1ncc2cc(-c3cc(NC(=O)c4cc(OC)c(OC)c(OC)c4)ccc3C)cnc2n1 [Example 216, N-(4-methyl-3-(2-(methylamino)pyrido[2,3-d]pyrimidin-6-yl)phenyl)-3,4,5-tris(methyloxy)benzamide] here?
A: ≤ 25 µM

Q: For CNc1ncc2cc(-c3cc(C(=O)Nc4cccc(C(F)(F)F)c4)ccc3C)cnc2n1 [Example 167, 4-methyl-3-(2-(methylamino)pyrido[2,3-d]pyrimidin-6-yl)-N-(3-(trifluoromethyl)phenyl)benzamide], which IC50 is on record?
A: ≤ 25 µM

Q: With CNc1ncc2cc(-c3cc(C(=O)Nc4cc(C(F)(F)F)ccc4N(C)CCCN(C)C)ccc3C)cnc2n1 [Example 193, N-(2-((3-(dimethylamino)propyl)(methyl)amino)-5-(trifluoromethyl)phenyl)-4-methyl-3-(2-(methylamino)pyrido[2,3-d]pyrimidin-6-yl)benzamide] as the molecule, how does the IC50 read?
A: ≤ 25 µM

Q: Which IC50 does the source give for Cc1ccc(C(=O)Nc2cc(C(F)(F)F)ccc2C(C)(C)CN(C)C)cc1-c1ccc2nc(N)ncc2c1 [Example 83, 3-(2-amino-6-quinazolinyl)-N-(2-(2-(dimethylamino)-1,1-dimethylethyl)-5-(trifluoromethyl)phenyl)-4-methylbenzamide] here?
A: ≤ 25 µM

Q: For Nc1ncc2cc(-c3cc(C(=O)Nc4cccc(C(F)(F)F)c4F)ccc3F)ccc2n1 [Example 136, 3-(2-amino-6-quinazolinyl)-4-fluoro-N-(2-fluoro-3-(trifluoromethyl)phenyl)benzamide], which IC50 is on record?
A: ≤ 25 µM
